# Legend:
# Format in all cases: in vivo, human
# [1] = tested on: patients with nonconstipation irritable bowel syndrome (non-C IBS); assay: Trial of rifaximin 550 mg TID for 14 days with 10-week follow-up (Example 5; Study 2 of Example 6)
# From the text: A measure of efficacy is based on subjects' answers to the Weekly Subject Global Assessment (SGA) questions over the 4 week study duration in relation to their IBS symptoms. […] Another measure of efficacy is based on subjects' answers to the Weekly Subject Global Assessment (SGA) question over the 4 week study duration in relation to their IBS symptom of bloating. The SGA question is asked weekly as follows: “In the past 7 days, have you had adequate relief of your IBS symptom of bloating?” (Yes/No). […] Other measures of efficacy include the changes in dIBS symptoms from baseline to each week of the 4 weeks in the study (e.g., abdominal pain and discomfort, bloating, number of stools per day, stool consistency, urgency with loose or watery stools).
# The primary efficacy endpoint of the study was the proportion of subjects who achieve adequate relief of IBS symptoms for at least 2 weeks during 10 the first 4 weeks of the 10-week follow-up phase.
# Two measures of efficacy were assessed.
# Subjects were questioned on the relief of overall IBS symptoms and bloating. […] The analyses defined success as a “yes” response to questions regarding adequate relief.
# Assessment (SGA) questions over the 4 week study duration in relation to their IBS symptoms. […] Another measure of efficacy is based on subjects' answers to the Weekly Subject Global Assessment (SGA) question over the 4 week study duration in relation to their IBS symptom of bloating. The SGA question is asked weekly as follows: “In the past 7 days, have you had adequate relief of your IBS symptom of bloating'?” (Yes/No).
# All subpopulations in the study responded to therapy. Baseline severity was determined during screening for Abdominal Pain/Discomfort and Bloating, and the number, type (normal, hard, loose) and urgency of bowel movements. Duration of effect was assessed in a ten week follow-up period.
# (§1) A measure of efficacy is based on subjects' answers to the Weekly Subject Global Assessment (SGA) questions over the study duration in relation to their IBS symptoms.
# subjects with IBS [2] = assay: Combined analysis of the two studies of rifaximin 550 mg TID
# subjects with IBS [3] = assay: as above; remark: listed apart in the source
# From the text: as §1
# [4] = Rifaximin exposure in subjects having IBS
# [5] = Age Group: <65, Rifaximin 550 mg TID (N = 281)
# [6] = Age Group: >=65, Rifaximin 550 mg TID
# [7] = Gender: Female, Rifaximin 550 mg TID (N = 226)
# [8] = Gender: Male, Rifaximin 550 mg TID (N = 85)
# [9] = IBS Subtype: Alternating-predominant, Rifaximin 550 mg TID
# [10] = IBS Subtype: Diarrhoea-predominant, Rifaximin 550 mg TID
# [11] = Population: ITT, Rifaximin 550 mg TID (N = 315)
# [12] = Population: PP, Rifaximin 550 mg TID (N = 311)
# [13] = Population: PP, Rifaximin 550 mg TID (N = 311), Weeks 3 through 6
# [14] = Race: Non-White, Rifaximin 550 mg TID (N = 31)
# [15] = Race: White, Rifaximin 550 mg TID (N = 280)
# [16] = Rifaximin 550 mg TID (N = 315), weekly SGA, at least 2 of Weeks 3 through 6, LOCF
# [17] = Study 2, at least 2 out of 4 weeks adequate relief during weeks 3 through 6 (weekly question)
# [18] = Study 2, at least 2 weeks during PEP
# [19] = at least 2 out of 4 weeks adequate relief during weeks 3 through 6 (weekly question)
substance,measurement,setting,value
"(2S,16Z,18E,20S,21S,22R, 23R,24R,25S,26S,27S,28E)-5,6,21,23,25 Pentahydroxy-27-methoxy -2,4,11,16,20,22,24,26-octamethyl-2,7-(epoxypentadeca-(1,11,13)trienimino)benzofuro (4,5-e) pyrido(1,2,-a) benzimidazole-1,15(2H)-dione,25-acetate [Rifaximin]",Adequate relief of IBS related symptoms (SGA) and IBS-related bloating (IBS-B),[1]; 550 mg TID for 2 weeks,statistically significant relief
same,Adequate Relief of IBS symptom of Bloating: Failure,[1]; [5],171 (60.9%) N (%)
same,Adequate Relief of IBS symptom of Bloating: Success,[1]; [5],110 (39.1%) N (%)
same,Adequate Relief of IBS symptoms: Failure,[1]; [5],171 (60.9%) N (%)
same,Adequate Relief of IBS symptoms: Success,[1]; [5],110 (39.1%) N (%)
same,Adequate Relief of IBS symptom of Bloating: Failure,[1]; [6],16 (53.3%) N (%)
same,Adequate Relief of IBS symptom of Bloating: Success,[1]; [6],14 (46.7%) N (%)
same,Adequate Relief of IBS symptoms: Failure,[1]; [6],16 (53.3%) N (%)
same,Adequate Relief of IBS symptoms: Success,[1]; [6],14 (46.7%) N (%)
same,Adequate Relief of IBS symptom of Bloating: Failure,[1]; [7],128 (56.6%) N (%)
same,Adequate Relief of IBS symptom of Bloating: Success,[1]; [7],98 (43.4%) N (%)
same,Adequate Relief of IBS symptoms: Failure,[1]; [7],130 (57.5%) N (%)
same,Adequate Relief of IBS symptoms: Success,[1]; [7],96 (42.5%) N (%)
same,Adequate Relief of IBS symptom of Bloating: Failure,[1]; [8],59 (69.4%) N (%)
same,Adequate Relief of IBS symptom of Bloating: Success,[1]; [8],26 (30.6%) N (%)
same,Adequate Relief of IBS symptoms: Failure,[1]; [8],57 (67.1%) N (%)
same,Adequate Relief of IBS symptoms: Success,[1]; [8],28 (32.9%) N (%)
same,Adequate Relief of IBS symptom of Bloating: Failure,[1]; [9],19 (55.9%) N (%)
same,Adequate Relief of IBS symptom of Bloating: Success,[1]; [9],15 (44.1%) N (%)
same,Adequate Relief of IBS symptoms: Failure,[1]; [9],21 (61.8%) N (%)
same,Adequate Relief of IBS symptoms: Success,[1]; [9],13 (38.2%) N (%)
same,Adequate Relief of IBS symptom of Bloating: Failure,[1]; [10],168 (60.6%) N (%)
same,Adequate Relief of IBS symptom of Bloating: Success,[1]; [10],109 (39.4%) N (%)
same,Adequate Relief of IBS symptoms: Failure,[1]; [10],166 (59.9%) N (%)
same,Adequate Relief of IBS symptoms: Success,[1]; [10],111 (40.1%) N (%)
same,Adequate Relief of IBS symptom of Bloating Based on Daily Measures: Failure,[1]; [11],182 (57.8%) N (%)
same,Adequate Relief of IBS symptom of Bloating Based on Daily Measures: Success,[1]; [11],133 (42.2%) N (%)
same,Adequate Relief of IBS symptoms Based on Daily Measures: Failure,[1]; [11],200 (63.5%) N (%)
same,Adequate Relief of IBS symptoms Based on Daily Measures: Success,[1]; [11],115 (36.5%) N (%)
same,Adequate Relief of IBS symptom of Bloating Based on Daily Measures: Failure,[1]; [12],180 (57.9%) N (%)
same,Adequate Relief of IBS symptom of Bloating Based on Daily Measures: Success,[1]; [12],131 (42.1%) N (%)
same,Adequate Relief of IBS symptoms Based on Daily Measures: Failure,[1]; [12],196 (63.0%) N (%)
same,Adequate Relief of IBS symptoms Based on Daily Measures: Success,[1]; [12],115 (37.0%) N (%)
same,Adequate Relief of IBS symptom of Bloating: Failure,[1]; [13],187 (60.1%) N (%)
same,Adequate Relief of IBS symptom of Bloating: Success,[1]; [13],124 (39.9%) N (%)
same,Adequate Relief of IBS symptoms: Failure,[1]; [13],187 (60.1%) N (%)
same,Adequate Relief of IBS symptoms: Success,[1]; [13],124 (39.9%) N (%)
same,Adequate Relief of IBS symptom of Bloating: Failure,[1]; [14],17 (54.8%) N (%)
same,Adequate Relief of IBS symptom of Bloating: Success,[1]; [14],14 (45.2%) N (%)
same,Adequate Relief of IBS symptoms: Failure,[1]; [14],16 (51.6%) N (%)
same,Adequate Relief of IBS symptoms: Success,[1]; [14],15 (48.4%) N (%)
same,Adequate Relief of IBS symptom of Bloating: Failure,[1]; [15],170 (60.7%) N (%)
same,Adequate Relief of IBS symptom of Bloating: Success,[1]; [15],110 (39.3%) N (%)
same,Adequate Relief of IBS symptoms: Failure,[1]; [15],171 (61.1%) N (%)
same,Adequate Relief of IBS symptoms: Success,[1]; [15],109 (38.9%) N (%)
same,Adequate Relief of IBS symptom of Bloating: Failure,[1]; [16],190 (60.3%) n (%)
same,Adequate Relief of IBS symptom of Bloating: Success,[1]; [16],125 (39.7%) n (%)
same,Adequate Relief of IBS symptoms: Failure,[1]; [16],190 (60.3%) n (%)
same,Adequate Relief of IBS symptoms: Success,[1]; [16],125 (39.7%) n (%)
same,"Daily abdominal pain <2, responders","[1]; Study 2, <2 for at least 50% of days in a week for at least 2 weeks during PEP",39%
same,"Global IBS symptoms, responders",[1]; [17],41%
same,"IBS symptom of Bloating, responders",[1]; [17],41%
same,"Abdominal Pain reduction of 2 point in mean, responders",[1]; [18],25%
same,"Abdominal Pain reduction of 2 point in median, responders",[1]; [18],41%
same,"Abdominal Pain reduction of 3 point in mean, responders",[1]; [18],6% vs 7%
same,"Abdominal Pain reduction of 3 point in median, responders",[1]; [18],21%
same,"Overall reduction of mean weekly abdominal pain by >=25%, responders",[1]; [18],58%
same,"Overall reduction of mean weekly abdominal pain by >=50%, responders",[1]; [18],35%
same,"Overall reduction of mean weekly abdominal pain by >=75%, responders",[1]; [18],14%
same,"Overall reduction of median weekly abdominal pain by >=25%, responders",[1]; [18],62%
same,"Overall reduction of median weekly abdominal pain by >=50%, responders",[1]; [18],44%
same,"Overall reduction of median weekly abdominal pain by >=75%, responders",[1]; [18],20%
same,"Abdominal pain reduction of 1 point in mean, responders","[1]; Study 2, weekly mean vs baseline for at least 2 weeks during PEP",52%
same,"Abdominal pain reduction of 1 point in median, responders","[1]; Study 2, weekly median vs baseline for at least 2 weeks during PEP",62%
same,% with decrease in SF (stool frequency),"[1]; Week 1, Rifaximin 550 mg TID",14.4%
same,% with decrease in SF (stool frequency),"[1]; Week 2, Rifaximin 550 mg TID",20.6%
same,% with decrease in SF (stool frequency),"[1]; Week 3, Rifaximin 550 mg TID",22.2%
same,% with decrease in SF (stool frequency),"[1]; Week 4, Rifaximin 550 mg TID",21.6%
same,% with decrease in SF (stool frequency),"[1]; Week 5, Rifaximin 550 mg TID",25.7%
same,% with decrease in SF (stool frequency),"[1]; Week 6, Rifaximin 550 mg TID",22.9%
same,% with decrease in SF (stool frequency),"[1]; Week 7, Rifaximin 550 mg TID",23.8%
same,% with decrease in SF (stool frequency),"[1]; Week 8, Rifaximin 550 mg TID",24.4%
same,% with decrease in SF (stool frequency),"[1]; Week 9, Rifaximin 550 mg TID",25.4%
same,% with decrease in SF (stool frequency),"[1]; Week 10, Rifaximin 550 mg TID",26.7%
same,% with decrease in SF (stool frequency),"[1]; Week 11, Rifaximin 550 mg TID",25.4%
same,% with decrease in SF (stool frequency),"[1]; Week 12, Rifaximin 550 mg TID",27.0%
same,"Daily abdominal pain <2, responders",subjects with IBS [2]; <2 for at least 50% of days in a week for at least 2 weeks during PEP,39%
same,"Global IBS symptoms, responders",subjects with IBS [2]; [19],41%
same,"IBS symptom of Bloating, responders",subjects with IBS [2]; [19],40%
same,"Abdominal Pain reduction of 2 point in median, responders",subjects with IBS [2]; at least 2 weeks during PEP,39%
same,"Abdominal Pain reduction of 3 point in mean, responders",subjects with IBS [2]; at least 2 weeks during PEP,6% vs 7%
same,"Abdominal Pain reduction of 3 point in median, responders",subjects with IBS [2]; at least 2 weeks during PEP,21%
same,"Abdominal pain reduction of 1 point in median, responders",subjects with IBS [2]; weekly median vs baseline for at least 2 weeks during PEP,63%
same,"Abdominal Pain reduction of 2 point in mean, responders",subjects with IBS [3]; at least 2 weeks during PEP,25%
same,"Overall reduction of mean weekly abdominal pain by >=25%, responders",subjects with IBS [3]; at least 2 weeks during PEP,57%
same,"Overall reduction of mean weekly abdominal pain by >=50%, responders",subjects with IBS [3]; at least 2 weeks during PEP,35%
same,"Overall reduction of mean weekly abdominal pain by >=75%, responders",subjects with IBS [3]; at least 2 weeks during PEP,14%
same,"Overall reduction of median weekly abdominal pain by >=25%, responders",subjects with IBS [3]; at least 2 weeks during PEP,62%
same,"Overall reduction of median weekly abdominal pain by >=50%, responders",subjects with IBS [3]; at least 2 weeks during PEP,44%
same,"Overall reduction of median weekly abdominal pain by >=75%, responders",subjects with IBS [3]; at least 2 weeks during PEP,21%
same,"Abdominal pain reduction of 1 point in mean, responders",subjects with IBS [3]; weekly mean vs baseline for at least 2 weeks during PEP,52%
same,"Rifaximin exposure, fold lower than neomycin exposure",[4],more than 66 fold
same,"Rifaximin exposure, fold lower than rifampin exposure",[4],more than 520 fold

# — patent US11564912B2, “Methods for treating irritable bowel syndrome (IBS)” (Salix Pharmaceuticals, Inc., priority 2008, dated 2023)
